# Assay results: paper doi:10.1101/2025.05.02.651913 (bioRxiv, 2025)
# System: MPXV strain hMPXV/USA/MA001/2022 (Lineage B.1, Clade IIb)
# Type: cell-based, Mpox virus (MPXV)
row,Compound,Duplicate of Duplicate of Hits: No CPE
1,"C=CC(=O)Nc1cc(Nc2nccc(-c3cn(C)c4ccccc34)n2)c(OC)cc1N(C)CCN(C)C.CS(=O)(=O)O [MC-Osimertinib (mesylate), Osimertinib (mesylate)]",1
2,"C=CC(=O)N1CCC[C@@H](n2nc(-c3ccc(Oc4ccccc4)cc3)c(C(N)=O)c2N)C1 [MC-Btk inhibitor 2, Btk inhibitor 2]",1
3,"C=CC(=O)Nc1cc(Nc2nccc(-c3c[nH]c4ccccc34)n2)c(OC)cc1N(C)CCN(C)C [MC-AZ-5104, AZ-5104]",1
4,"CS[C@@]1(C(=O)Nc2ccc3[nH]nc(-c4ccc(OC(C)C)nc4)c3c2)CCN(CC(=O)N2CC=C(c3ccc(-c4ncn(C)n4)cc3)CC2)C1 [MC-MK-8353, MK-8353]",1
5,"Cc1cccc([C@@H](CO)NC(=O)[C@@H](C)N2Cc3ccc(-c4nc(NC5CCOCC5)ncc4Cl)cc3C2=O)c1 [MC-ERK1/2 inhibitor 1, ERK1/2 inhibitor 1]",1
6,"Cn1nccc1Nc1nccc(-c2cc3c(s2)C(C)(C)N(CCN2CCOCC2)C3=O)n1 [MC-Temuterkib, Temuterkib]",1
7,"CCN1CCN(Cc2ccc(-c3cc4c(N[C@H](C)c5ccccc5)ncnc4[nH]3)cc2)CC1 [NKIL-AEE788 (NVP-AEE788), AEE788]",1
8,"CNc1ncc2cc(-c3cc(NC(=O)NCCC(C)(C)C)c(F)cc3C)c(C)nc2n1 [MC-LY3009120, LY3009120]",1
9,"C=CC(=O)Nc1ccc2ncnc(Nc3ccc(OCc4cccc(F)c4)c(Cl)c3)c2c1.Cc1ccc(S(=O)(=O)O)cc1 [NKIL-AST-1306, Allitinib tosylate]",1
10,"Cc1nc2c(-c3cnc(N)nc3)nc(N3CCOCC3)nc2n1C(C)C [NKIL-VS-5584 (SB2343), VS-5584]",1
11,"Nc1ccc(-c2ccc3ncc4ccc(=O)n(-c5cccc(C(F)(F)F)c5)c4c3c2)cn1 [NKIL-Torin 2, Torin 2]",1
12,"CCOc1cc2ncc(C#N)c(Nc3ccc(OCc4ccccn4)c(Cl)c3)c2cc1NC(=O)/C=C/CN(C)C.O=C(O)/C=C\C(=O)O [MC-Neratinib (maleate), Neratinib (maleate)]",1
13,"C#Cc1cccc(Nc2ncnc3cc(OC)c(OCCCN4CCOCC4)cc23)c1 [MC-NRC-2694, NRC-2694]",1
14,"C=CC(=O)N1CCC[C@@H](n2c(=O)n(-c3ccc(Oc4ccccc4)cc3)c3c(N)nccc32)C1 [MC-Tolebrutinib, Tolebrutinib]",1
15,"C=CC(=O)Nc1cc(Nc2nccc(-c3c4n(c5ccccc35)CCCC4)n2)c(OC)cc1N(C)CCN(C)C [MC-Oritinib, Oritinib]",1
16,"C=CC(=O)Nc1cc2c(Nc3ccc(F)c(Cl)c3)ncnc2cc1C#CC(C)(C)N1CCN(C)CC1 [MC-AV-412 (free base), AV-412 (free base)]",1
17,"C=CC(=O)Nc1cc(Nc2nccc(-c3cn(C4CC4)c4ccccc34)n2)c(OC)cc1N(C)CCN(C)C [MC-Almonertinib, Almonertinib]",1
18,"C=CC(=O)Nc1cc(Nc2nccc(-c3cn(C4CC4)c4ccccc34)n2)c(OC)cc1N(C)CCN(C)C.CS(=O)(=O)O [MC-Almonertinib (mesylate), Almonertinib (mesylate)]",1
19,KIRA-7 [MC-KIRA-7],1

row,Compound,Duplicate of Duplicate of Hits: No CPE
1,"CNC(=O)CN1CCC(Oc2cc3c(Nc4cccc(Cl)c4F)ncnc3cc2OC)CC1 [NKIL-AZD8931 (Sapitinib), Sapitinib]",1
2,"Cc1c(CN2CCN(S(C)(=O)=O)CC2)sc2c(N3CCOCC3)nc(-c3cnc(N)nc3)nc12 [MC-GNE-477, GNE-477]",1
3,"Cc1c(=O)n(C)c(Nc2ccc(I)cc2F)c2c(=O)n(C3CC3)c(=O)n(-c3cccc(N)c3)c12 [MC-GSK1790627, GSK1790627]",1
4,"C=CC(=O)Nc1cc2c(Nc3ccc(F)c(Cl)c3)ncnc2cc1OC [MC-PF-6274484, PF-6274484]",1
5,"Cc1cc(C(=O)Nc2nc3cccc(Cl)c3n2[C@@H]2CCCCN(C(=O)/C=C/CN(C)C)C2)ccn1 [MC-Nazartinib, Nazartinib]",1
6,"O=C(N/N=C/c1c(O)ccc2ccccc12)c1cc(-c2ccc3ccccc3c2)n[nH]1 [MC-SKI-I, SKI-I]",1
7,"COc1cc2ncnc(Nc3ccc(O)c(Br)c3)c2cc1OC [NKIL-WHI-P154, WHI-P154]",1
8,"O=C(NC[C@H](O)CO)c1ccncc1Nc1ccc(I)cc1F [NKIL-Pimasertib (AS-703026), Pimasertib]",1
9,"C=CC(=O)Nc1cc(Nc2nccc(-c3cn(C)c4ccccc34)n2)c(OC)cc1N(C)CCNC.CS(=O)(=O)O.CS(=O)(=O)O.CS(=O)(=O)O [MC-AZ7550 Mesylate, AZ7550 Mesylate]",1
10,"COc1cc2ncnc(Nc3ccc(F)c(Cl)c3)c2cc1OCCCN1C[C@@H]2OCCO[C@@H]2C1.CS(=O)(=O)O.CS(=O)(=O)O.O [MC-Larotinib (mesylate hydrate), Larotinib (mesylate hydrate)]",1
11,(S)-Sunvozertinib [MC-(S)-Sunvozertinib],1
12,"COc1cc2ncnc(Nc3cccc(I)c3)c2cc1OC [MC-AG1557, AG1557]",1
13,"C=CC(=O)Nc1cccc(-n2c(=O)cc(C)c3cnc(Nc4ccc(OCCN(C)C)cc4OC)nc32)c1.O=C(O)C(F)(F)F [MC-EGFR-IN-1 (TFA), EGFR-IN-1 (TFA)]",1
14,"COc1ccc(-c2cc3c(C)nc(N)nc3n([C@H]3CC[C@H](OCCO)CC3)c2=O)cn1 [NKIL-PF-04691502, PF-04691502]",1
15,"COc1ncc(-c2ccc3nccc(C#CCN4CCN(S(C)(=O)=O)CC4)c3c2)cc1NS(=O)(=O)c1ccc(F)cc1F [MC-NSC781406, NSC781406]",1
16,"O=C1Nc2ccc3ncsc3c2/C1=C/c1cnc[nH]1 [MC-PKR-IN-C16, PKR-IN-C16]",1
17,"O=C(NOC[C@H](O)CO)c1ccc(F)c(F)c1Nc1ccc(I)cc1F [LOPAC-PD 0325901, Mirdametinib]",1
18,"CN(C)C/C=C/C(=O)Nc1cccc(-c2c(-c3ccccc3)oc3ncnc(N[C@H](CO)c4ccccc4)c23)c1 [MC-DBPR112, DBPR112]",1
19,"COc1cc2ncnc(Nc3ccc(F)c(Cl)c3)c2cc1NC(=O)/C=C/CN1CCCCC1 [NKIL-Dacomitinib (PF299804, PF299), Dacomitinib]",1

row,Compound,Duplicate of Duplicate of Hits: No CPE
1,"C=CC(=O)Nc1cc2c(Nc3ccc(OCc4ccccn4)c(Cl)c3)ncnc2cc1OCCN1CCOCC1 [MC-Tuxobertinib, Tuxobertinib]",1
2,"C=CC(=O)Nc1cc(Nc2ncc(C(=O)OC(C)C)c(-c3cn(C)c4ccccc34)n2)c(OC)cc1N(C)CCN(C)C.O=C(O)CCC(=O)O [MC-Mobocertinib (succinate), Mobocertinib (succinate)]",1
3,"Cc1c[nH]c2nc(Nc3ccc(N4CCN(C)CC4)c(F)c3)nc(-c3cccc(CC#N)c3)c12 [NKIL-SGI-7079, SGI-7079]",1
4,"CCN1CCN(Cc2ccc(NC(=O)c3ccc(C)c(/C=C/c4cnc5[nH]ccc5c4OC)c3)cc2C(F)(F)F)CC1 [MC-HG6-64-1, HG6-64-1]",1
5,"O=C1Nc2cc3[nH]nc(-c4ccncc4)c3cc2CN1Cc1ccccc1 [MC-KO-947, KO-947]",1
6,"COc1ccc(N(C(=O)Oc2cc(C(=O)Nc3cccc(C(F)(F)F)c3)ccc2C)c2ccnc(Nc3ccc(N4CCN(C)CC4)cc3)n2)c(OC)c1 [MC-WH-4-025, WH-4-025]",1
7,"C=CC(=O)Nc1cccc(Oc2nc(Nc3ccc(N4CCN(C)CC4)c(F)c3)nc3[nH]ccc23)c1.O=C(O)/C=C\C(=O)O [MC-Avitinib (maleate), Avitinib (maleate)]",1
8,"COc1cc(Nc2c(C#N)cnc3cc(OCCCN4CCN(C)CC4)c(OC)cc23)c(Cl)cc1Cl [LOPAC-Bosutinib, Bosutinib]",1
9,"CCS(=O)(=O)c1cc(Nc2ncc(F)c(N(Cc3ccccc3C#N)c3cc(CO)ccc3C)n2)ccc1N1CCN(C)CC1 [MC-AZ13705339, AZ13705339]",1
10,"C=CC(=O)N[C@@H]1CN(c2nc(Nc3cn(C)nc3OC)c3ncn(C)c3n2)C[C@H]1F [MC-Mavelertinib, Mavelertinib]",1
11,"CNC(=O)c1ccccc1Nc1cc(Nc2ccc(N3CCN(CC(=O)N[C@H](C(=O)N4C[C@H](O)C[C@H]4C(=O)N[C@@H](C)c4ccc(-c5scnc5C)cc4)C(C)(C)C)CC3)cc2OC)ncc1C(F)(F)F [MC-GSK215, GSK215]",1
12,"O=C(NOCCO)c1cc(CN2OCCCC2=O)c(F)c(F)c1Nc1ccc(I)cc1F [MC-RO4987655, RO4987655]",1
13,"C=CC(=O)N1C[C@H](COc2nc(Nc3cnn(C)c3)nc3[nH]cc(Cl)c23)[C@@H](OC)C1 [MC-PF-06459988, PF-06459988]",1
14,FGFR1/DDR2 inhibitor 1 [MC-FGFR1/DDR2 inhibitor 1],1
15,"C=CC(=O)Nc1cc(Nc2nccc(-c3cn(C)c4ccccc34)n2)c(OC)cc1OCCN(C)C [MC-Rezivertinib, Rezivertinib]",1
16,"C=CC(=O)Nc1cccc(Oc2nc(Nc3ccc(N4CCN(C)CC4)cc3)ncc2Cl)c1 [NKIL-WZ3146, WZ3146]",1
17,"COc1cc2ncnc(Nc3ccc(F)c(Cl)c3)c2cc1OCCN1CC2(CC2)C2(C1)OCCO2 [MC-Simotinib, Simotinib]",1
18,"C=CCn1cc(-c2ccc(NC(=O)Nc3cc(C(C)(C)C)on3)cc2)c2c(N)ncnc21 [MC-FLT3-IN-4, FLT3-IN-4]",1
19,"C=CC(=O)Nc1cccc(Sc2nc(Nc3ccc(N4CCN(C)CC4)cc3)ncc2Cl)c1 [NKIL-WZ8040, WZ8040]",1
